Data as given in ChEMBL document CHEMBL1268973, “Flavonoids from Dracocephalum tanguticum and their cardioprotective effects against doxorubicin-induced toxicity in H9c2 cells” (Bioorg Med Chem Lett, 2010).
pEC50: −log10 of the molar value. Calls of active or inactive are those of the source. The calls are words filed in the database; no cut-off is given here.

Tests used:
[1] = Antioxidant activity assessed as ABTS radical scavenging activity; type: functional
H9c2 [2] = experiment: Cytoprotective activity against doxorubicin-induced cytotoxicity in rat H9c2 cells assessed as cell viability after 24 hrs by MTT assay; type: functional, cell-based; details: for pEC50: Rattus norvegicus, H9c2, 24 h, read-out: EC50; for EC50: h9c2
[3] = test system: Radical scavenging activity; experiment: Antioxidant activity of the compound assessed as DPPH radical scavenging activity after 30 mins; type: functional
[4] = Antioxidant activity assessed as ferrous ion chelating activity; type: functional
H9c2 [5] = experiment: Cytoprotective activity against rat H9c2 cells assessed as inhibition of doxorubicin-induced intracellular ROS elevation at 5 to 20 uM after 24 hrs; type: functional, cell-based
H9c2 [6] = experiment: Cytoprotective activity against in rat H9c2 cells assessed as inhibition of doxorubicin-induced cell death after 24 hrs by MTT assay; type: functional, cell-based
H9c2 [7] = experiment: Effect on doxorubicin-induced total apoptosis in rat H9c2 cells at 20 uM; type: functional, cell-based
H9c2 [8] = experiment: Cytoprotective activity against rat H9c2 cells assessed as inhibition of doxorubicin-induced intracellular Ca2+ elevation; type: functional, cell-based
H9c2 [9] = experiment: Cytoprotective activity against rat H9c2 cells assessed as inhibition of doxorubicin-induced morphological changes at 10 to 40 uM after 24 hrs; type: functional, cell-based
H9c2 [10] = experiment: Cytoprotective activity against rat H9c2 cells assessed as reduction in doxorubicin-induced CK release at 5 to 20 uM after 24 hrs; type: functional, cell-based
H9c2 [11] = experiment: Cytoprotective activity against rat H9c2 cells assessed as reduction in doxorubicin-induced LDH release at 5 to 20 uM after 24 hrs; type: functional, cell-based

## CCOC(=O)[C@H]1O[C@@H](Oc2cc(O)c3c(=O)cc(-c4ccc(O)c(O)c4)oc3c2)[C@H](O)[C@@H](O)[C@@H]1O
[1]
  pEC50: 4.06
H9c2 [2]
  pEC50: 5.20
[3]
  pEC50: 4.88
[4]
  pEC50: 2.48

## O=C1C[C@@H](c2ccc(O)cc2)Oc2cc(O)cc(O)c21 [NARINGENIN]
[1]
  pEC50: 4.87
H9c2 [2]
  EC50: Not Active
[3]
  pEC50: 4.14
[4]
  pEC50: 1.67

## O=c1cc(-c2ccc(O)c(O)c2)oc2cc(O)cc(O)c12 [LUTEOLIN]
[1]
  pEC50: 3.98
H9c2 [2]
  pEC50: 5.26
[3]
  pEC50: 5.21
[4]
  pEC50: 1.92

## COc1cc2oc(-c3ccc(O)c(O)c3)cc(=O)c2c(O)c1O[C@@H]1O[C@H](COC(C)=O)[C@@H](O)[C@H](O)[C@H]1O
[1]
  pEC50: 4.12
H9c2 [2]
  pEC50: 4.72
[3]
  pEC50: 4.02
[4]
  pEC50: 2.95

## O=C1C[C@@H](c2ccc(O)c(O)c2)Oc2cc(O[C@@H]3O[C@H](CO)[C@@H](O)[C@H](O)[C@H]3O)cc(O)c21
[1]
  pEC50: 5.14
H9c2 [2]
  pEC50: 4.42
[3]
  pEC50: 4.81
[4]
  pEC50: 0.67

## O=C1C[C@@H](c2cc(O)cc(O)c2)Oc2cc(O)cc(O)c21
[1]
  pEC50: 4.79
H9c2 [2]
  EC50: Not Active
[3]
  pEC50: 4.49
[4]
  pEC50: 0.79

## COc1cc2oc(-c3ccc(O)cc3)cc(=O)c2c(O)c1O
[1]
  pEC50: 4.87
H9c2 [2]
  EC50: Not Active
[3]
  pEC50: 4.70

## O=C1C[C@@H](c2ccc(O)cc2)Oc2cc(O[C@@H]3O[C@H](CO)[C@@H](O)[C@H](O)[C@H]3O)cc(O)c21 [PRUNIN]
[1]
  pEC50: 4.74
H9c2 [2]
  EC50: Not Active
[3]
  pEC50: 4.39

## COc1cc2oc(-c3ccc(O)cc3)cc(=O)c2c(O)c1O[C@@H]1O[C@H](CO)[C@@H](O)[C@H](O)[C@H]1O
[1]
  pEC50: 3.24
H9c2 [2]
  EC50: Not Active
[3]
  pEC50: 3.80

## COc1cc2oc(-c3ccc(O)c(O)c3)cc(=O)c2c(O)c1O[C@@H]1O[C@H](CO)[C@@H](O)[C@H](O)[C@H]1O
[1]
  pEC50: 4.06
H9c2 [2]
  EC50: Not Active
[3]
  pEC50: 4.09
[4]
  pEC50: 1.56

## COc1cc2oc(-c3ccc(O)cc3)cc(=O)c2c(O)c1O[C@@H]1O[C@H](COC(C)=O)[C@@H](O)[C@H](O)[C@H]1O
[1]
  pEC50: 4.91
H9c2 [2]
  EC50: Not Active
[3]
  pEC50: 3.95
[4]
  pEC50: 2.35

## O=C1C[C@@H](c2ccc(O)c(O)c2)Oc2cc(O)cc(O)c21 [ERIODICTYOL]
[1]
  pEC50: 5.94
H9c2 [2]
  pEC50: 4.59
[3]
  pEC50: 4.01
[4]
  pEC50: 2.08

## COc1cc2oc(-c3ccc(O)c(O[C@@H]4O[C@H](CO)[C@@H](O)[C@H](O)[C@H]4O)c3)cc(=O)c2c(O)c1O
[1]
  pEC50: 4.80
H9c2 [2]
  pEC50: 4.88
[3]
  pEC50: 4.51
[4]
  pEC50: 4.22

## O=c1cc(-c2ccc(O)c(O)c2)oc2cc(O[C@@H]3O[C@H](CO)[C@@H](O)[C@H](O)[C@H]3O)cc(O)c12 [GALUTEOLIN]
H9c2 [5]
  Activity: Active
H9c2 [6]
  Activity: inactive
H9c2 [7]
  Activity: inactive
[1]
  pEC50: 4.25
H9c2 [8]
  Activity: Dose-dependent effect
H9c2 [2]
  pEC50: 5.30
[3]
  pEC50: 5.40
H9c2 [9]
  Activity: Active
[4]
  pEC50: 2.96
H9c2 [10]
  Activity: Active
H9c2 [11]
  Activity: Active

## O=c1cc(-c2ccc(O)cc2)oc2cc(O[C@@H]3O[C@H](CO)[C@@H](O)[C@H](O)[C@H]3O)cc(O)c12 [APIGETRIN]
[1]
  pEC50: 4.88
H9c2 [2]
  pEC50: 4.91
[3]
  pEC50: 4.69

## COc1ccc(-c2cc(=O)c3c(O)cc(O[C@@H]4O[C@H](CO)[C@@H](O)[C@H](O)[C@H]4O)cc3o2)cc1 [TILIANINE]
[1]
  pEC50: 3.40
H9c2 [2]
  EC50: Not Active
[3]
  pEC50: 4.02
